Reference: ChEMBL document CHEMBL3044900, “Synthesis of pregnenolonedanazolethylendiamine conjugate: relationship between descriptors log P, , R m, and V m and its antibacterial activity in S. aureus and V. cholerae” (2011)
≈ marks a conversion by molar mass, not a printed value.

Assays:
[1] = test system: Staphylococcus aureus; assay: Antibacterial activity against Staphylococcus aureus ATCC 25923 incubated for 24 hr followed by compound washout measured after 24 hr by dilution method; format: functional
[2] = test system: Vibrio cholerae; assay: Antibacterial activity against Vibrio cholerae ATCC 14035 incubated for 24 hr followed by compound washout measured after 24 hr by dilution method; format: functional

Row | Compound | MIC ([1]; ATCC 25923, 24 h) | MIC ([2]; ATCC 14035, 24 h) | MIC [1] | MIC [2]
1 | C#C[C@@]1(OC(=O)CCC(=O)O[C@H]2CC[C@@]3(C)C(=CC[C@H]4[C@@H]5CC[C@H](C(C)=O)[C@@]5(C)CC[C@@H]43)C2)CC[C@H]2[C@@H]3CCC4=C(CNCCN)c5oncc5C[C@]4(C)[C@H]3CC[C@@]21C | 1.23 µM (≈ 0.994 µg/mL) | 1.23 µM (≈ 0.994 µg/mL) |  | 
2 | CO/N=C(\C(=O)N[C@@H]1C(=O)N2C(C(=O)O)=C(COC(C)=O)CS[C@H]12)c1csc(N)n1 [CEFOTAXIME] | 0.261 µM (≈ 0.119 µg/mL) | 0.523 µM (≈ 0.238 µg/mL) |  | 
3 | O=C(O)c1cn(C2CC2)c2cc(N3CCNCC3)c(F)cc2c1=O [CIPROFLOXACIN] | 0.377 µM (≈ 0.125 µg/mL) | 3.01 µM (≈ 0.997 µg/mL) |  | 
4 | C#C[C@@]1(OC(=O)CCC(=O)O[C@H]2CC[C@@]3(C)C(=CC[C@H]4[C@@H]5CC[C@H](C(C)=O)[C@@]5(C)CC[C@@H]43)C2)CC[C@H]2[C@@H]3CCC4=Cc5oncc5C[C@]4(C)[C@H]3CC[C@@]21C [DANAZOL-PREGNENOLONE] | 0.663 µM (≈ 0.488 µg/mL) | 1.32 µM (≈ 0.972 µg/mL) |  | 
5 | GENTAMICIN |  |  | 0.274 µM | 0.0134 µM
